Test systems include ACHN renal; DU-145 prostate; LOX IMVI melanoma; MDA-MB-435; NCI-H226 lung; NCI-H23 lung; NCI-H460 lung; OVCAR-8 ovarian; PC-3 prostate; RXF 393 renal; SK-MEL-28 melanoma; SK-OV-3 ovarian; SNB-19 CNS; TK-10 renal; UO-31 renal.
Common to all, as to test: DTP human tumour cell line panel, 48 h

The TGI is the concentration giving total growth inhibition. Lower therefore signals more potent growth arrest.

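These data come from cells grown in 96-well plates and exposed to compound for 48 hours at five concentrations. The concentration for full growth arrest is given as TGI.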

Take `COC(=O)/C=C(\S/C(=C(/c1ccccc1)n1cc(C(=O)OC)c(C(=O)OC)n1)c1ccccc1)C(=O)OC`: the TGI is 10.6 µM with ACHN renal; 29.1 µM in the assay with DU-145 prostate; 21.4 µM in the assay on LOX IMVI melanoma; 32.9 µM in the assay on MDA-MB-435; more than 100 µM with NCI-H226 lung; 38 µM with NCI-H23 lung. The TGI in the assay with NCI-H460 lung is more than 100 µM; with OVCAR-8 ovarian, 3.88 µM; in the assay with PC-3 prostate, 32.2 µM; in the assay on RXF 393 renal, 31.4 µM; in the assay with SK-MEL-28 melanoma, 60.4 µM; in the assay on SK-OV-3 ovarian it was more than 100 µM. The TGI with SNB-19 CNS came to 40 µM; in the assay with TK-10 renal it was 9.22 µM; with UO-31 renal, 5.25 µM.

With `CCOP(=O)(OCC)OC1CC(n2cnc3c(N(CC)CC)ncnc32)OC1CO[Si](C)(C)C(C)(C)C` (stereo not given), the TGI was 28.8 µM in the assay on ACHN renal; 28.8 µM with DU-145 prostate; 33.4 µM with LOX IMVI melanoma; 31.7 µM in the assay on MDA-MB-435; 39.3 µM in the assay on NCI-H226 lung; 37.2 µM in the assay on NCI-H23 lung. Moreover, the TGI in the assay with NCI-H460 lung was determined as 32 µM; in the assay on OVCAR-8 ovarian, 56.4 µM; in the assay with PC-3 prostate it was 28.5 µM; in the assay with RXF 393 renal, 32.3 µM; with SK-MEL-28 melanoma, 36.3 µM; in the assay with SK-OV-3 ovarian, 31.6 µM. In addition, the TGI with SNB-19 CNS amounted to 33.7 µM; with TK-10 renal it was 33 µM; with UO-31 renal, 35.4 µM.

`O=C1c2ccccc2-c2ccc(N(Cc3ccc(Br)cc3)Cc3ccc(Br)cc3)cc21`: the concentration for total growth inhibition (TGI) with ACHN renal, in the assay with DU-145 prostate, in the assay with LOX IMVI melanoma, in the assay with MDA-MB-435, in the assay on NCI-H226 lung and in the assay with NCI-H23 lung was more than 100 µM each time. Also, the TGI with NCI-H460 lung, in the assay on OVCAR-8 ovarian, in the assay with PC-3 prostate, in the assay with RXF 393 renal, in the assay on SK-MEL-28 melanoma and with SK-OV-3 ovarian was more than 100 µM in each case. The TGI in the assay on SNB-19 CNS, in the assay with TK-10 renal and in the assay with UO-31 renal was more than 100 µM in each case.

In the case of `CCCCC[C@H]1CC=CC(=O)O1`, the total growth inhibition concentration (TGI) with ACHN renal is 43.6 µM; with DU-145 prostate, 36.1 µM; with LOX IMVI melanoma, 18.1 µM; in the assay with MDA-MB-435, 23 µM; with NCI-H226 lung, 23.9 µM; with NCI-H23 lung, more than 100 µM. The TGI in the assay with NCI-H460 lung was determined as 21.2 µM; in the assay with OVCAR-8 ovarian it was 24.8 µM; in the assay on PC-3 prostate it was 69.3 µM; with RXF 393 renal, 9.16 µM; with SK-MEL-28 melanoma, 20.5 µM; in the assay on SK-OV-3 ovarian, 39.7 µM. Also, the results for the TGI with SNB-19 CNS, in the assay with TK-10 renal and in the assay with UO-31 renal were 28.2 µM, 40.4 µM and 24 µM, respectively.

With `N#Cc1c(-c2ccccc2)cc(Nc2ccc(F)cc2)n2c1nc1ccccc12`, the TGI is 10.6 µM with ACHN renal; more than 100 µM in the assay on DU-145 prostate; more than 30.4 µM in the assay with LOX IMVI melanoma; more than 100 µM in the assay on MDA-MB-435; more than 24 µM in the assay with NCI-H226 lung; more than 27.4 µM with NCI-H23 lung. In addition, the TGI was more than 100 µM in the assay on NCI-H460 lung; more than 32.7 µM in the assay with OVCAR-8 ovarian; 4.97 µM with PC-3 prostate; more than 31.4 µM in the assay with RXF 393 renal; more than 100 µM in the assay with SK-MEL-28 melanoma; 8.71 µM in the assay on SK-OV-3 ovarian. The figures for the TGI with SNB-19 CNS, with TK-10 renal and with UO-31 renal were more than 100 µM, more than 54 µM and 6.66 µM, respectively.

Consider `CCOC(=O)c1cc(NC(=O)c2ccccc2)c(=O)n2c(cc3c(Cl)cccc32)c1O`, for which the TGI in the assay on ACHN renal, in the assay with DU-145 prostate, with LOX IMVI melanoma, in the assay with MDA-MB-435, in the assay with NCI-H226 lung and in the assay on NCI-H23 lung was more than 100 µM in each case. In addition, the TGI in the assay with NCI-H460 lung, with OVCAR-8 ovarian, in the assay on PC-3 prostate, in the assay with RXF 393 renal, in the assay with SK-MEL-28 melanoma and with SK-OV-3 ovarian was more than 100 µM throughout. Also, the TGI in the assay on SNB-19 CNS, in the assay on TK-10 renal and with UO-31 renal was more than 100 µM in each case.

Take `c1ncc(C23C4C5C6C4C2C6C53)[nH]1` (stereo not given): the TGI with ACHN renal, with DU-145 prostate, with LOX IMVI melanoma, in the assay with MDA-MB-435, in the assay on NCI-H226 lung and with NCI-H23 lung was more than 100 µM in each case. For the same compound, the TGI in the assay on NCI-H460 lung, with OVCAR-8 ovarian, in the assay on PC-3 prostate, in the assay with RXF 393 renal, with SK-MEL-28 melanoma and with SK-OV-3 ovarian was more than 100 µM throughout. In addition, the TGI in the assay with SNB-19 CNS, in the assay with TK-10 renal and in the assay with UO-31 renal was more than 100 µM in each case.

`Nc1nc(Cl)cc(NCC2(CO)CC(O)C2)n1` (stereo not given): the total growth inhibition concentration (TGI) with ACHN renal, in the assay on DU-145 prostate, in the assay on LOX IMVI melanoma, in the assay with MDA-MB-435, with NCI-H226 lung and in the assay with NCI-H23 lung was more than 100 µM in each case. For the same compound, the TGI with NCI-H460 lung, in the assay on OVCAR-8 ovarian, in the assay with PC-3 prostate, in the assay with RXF 393 renal, in the assay with SK-MEL-28 melanoma and with SK-OV-3 ovarian was more than 100 µM each time. Also, the TGI in the assay with SNB-19 CNS, with TK-10 renal and in the assay on UO-31 renal was more than 100 µM throughout.

Turning to `Cc1c(O)c(OC2OC(CO)C(O)C(O)C2O)cc2c1CC[C@@H]1C2(C)C(=O)C[C@]2(C)[C@@H]([C@@](C)(O)C(O)CCC(C)(C)O)[C@H](O)C[C@@]12C` (stereo not given in full), the TGI in the assay with ACHN renal, in the assay on DU-145 prostate, in the assay on LOX IMVI melanoma, in the assay with MDA-MB-435, in the assay on NCI-H226 lung and with NCI-H23 lung was more than 100 µM each time. The concentration for total growth inhibition (TGI) in the assay with NCI-H460 lung, in the assay with OVCAR-8 ovarian, in the assay with PC-3 prostate, with RXF 393 renal, with SK-MEL-28 melanoma and with SK-OV-3 ovarian was more than 100 µM in each case. The TGI in the assay on SNB-19 CNS, with TK-10 renal and in the assay with UO-31 renal was more than 100 µM each time.

For the origin of these results see PubChem BioAssay (NCI).
